The subject of this assay is pylorous ligated rats. The experiment in a line: Antisecretory activity in the pylorous ligated rat model. The following applies: for inhibition in vivo at 50 mg/kg / inhibition in vivo at 12.5 mg/kg / inhibition in vivo at 25 mg/kg / inhibition in vivo at 100 mg/kg: Rattus norvegicus, 4 h; for inhibition in vivo at 12.5 mg/kg: oral dose 12.5 mg/kg. In kind it is in vivo, male Sprague-Dawley rats. Here is the method: To determine the antisecretory activity of the present compounds, the compounds were tested for such activity in pylorous ligated rats. In this test, male Sprague-Dawley rats weighing 170-190 g. were fasted for 24 hours. Water was allowed ad libitum. All groups were comprised of six rats. […] Water was withheld after drug administration. Ligation of the pyrloric sphincter was performed under ether anesthesia, and four hours after ligation the animals were sacrificed with CO2. The stomach was dissected out and the contents were expelled into a graduated centrifuge tube. The samples were centrifuged and the volume, less debris, was measured. Sample aliquots were titrated with 0.05 N NaOH to determine acid concentration. Pepsin activity was determined on an auto analyzer using hemoglobin as the substrate by the method of Anson. Group means for volume, acid and pepsin concentrations, and pepsin outputs were compared for statistically significant differences from control means by Student's t-test.

The mark [1] stands for this setting: oral dose 50 mg/kg, negative sign means stimulated.
[2] abbreviates: oral dose 50 mg/kg, negative sign means stimulated, read-out: Percent inhibition of pepsin.
[3] abbreviates: oral dose 50 mg/kg, negative sign means stimulated, read-out: Percent inhibition of pepsin output.
Where [4] appears, read: oral dose 50 mg/kg, read-out: Percent inhibition of acid output.
[5] abbreviates: oral dose 50 mg/kg, read-out: Percent inhibition of acidity.
Where [6] appears, read: oral dose 50 mg/kg, read-out: Percent inhibition of volume.
[7] abbreviates: negative sign means stimulated, read-out: Percent inhibition of pepsin.
The mark [8] stands for this setting: read-out: Percent inhibition of acid output.
The mark [9] stands for this setting: read-out: Percent inhibition of acidity.
[10] abbreviates: read-out: Percent inhibition of pepsin output.
Where [11] appears, read: read-out: Percent inhibition of volume.
Setting [12] is: oral dose 25 mg/kg, negative sign means stimulated, read-out: Percent inhibition of pepsin.
The mark [13] stands for this setting: oral dose 25 mg/kg, read-out: Percent inhibition of acid output.
[14] abbreviates: oral dose 25 mg/kg, read-out: Percent inhibition of acidity.
[15] abbreviates: oral dose 25 mg/kg, read-out: Percent inhibition of pepsin output.
Setting [16] is: oral dose 25 mg/kg, read-out: Percent inhibition of volume.
Where [17] appears, read: oral dose 100 mg/kg, negative sign means stimulated, read-out: Percent inhibition of pepsin.
Where [18] appears, read: oral dose 100 mg/kg, read-out: Percent inhibition of acid output.
The mark [19] stands for this setting: oral dose 100 mg/kg, read-out: Percent inhibition of acidity.
The mark [20] stands for this setting: oral dose 100 mg/kg, read-out: Percent inhibition of pepsin output.
Setting [21] is: oral dose 100 mg/kg, read-out: Percent inhibition of volume.

Structures can show the parent of a compound that is named as a salt. Where two headings read alike, the source gives them in different places.

As to “2-(N-Methyl-1,2,3,4-tetrahydro-4-pyridyl)-5-(methyl) resorcinol [IX]”, under “oral dose 50 mg/kg”, the “Percent inhibition of acid output” value amounted to 31.7%, the “Percent inhibition of acidity” value is on record as 12.1% and the “Percent inhibition of volume” value was 21.9%. Besides, under setting [1], the “Percent inhibition of pepsin” value was -7.2% and the “Percent inhibition of pepsin output” value is given as 17.0%.
On to “2-(N-Propargyl-1,2,3,4-tetrahydro-4-pyridyl)-3-methoxy-5-(1,2-dimethylheptyl)phenol [XXIX]”, for which, for the setting “oral dose 25 mg/kg”, the “Percent inhibition of acid output” value was determined as 7.8%, the “Percent inhibition of acidity” value is reported as 18.6% and the “Percent inhibition of volume” value is given as -13.0%. In addition, where the note is “oral dose 50 mg/kg”, the “Percent inhibition of acid output” value stood at 45.6%, the “Percent inhibition of acidity” value was determined as 50.6% and the “Percent inhibition of volume” value is -5.7%. Further, under setting [1], the “Percent inhibition of pepsin” value stood at 21.0% and the “Percent inhibition of pepsin output” value worked out at 23.9%. Also, for the setting “oral dose 100 mg/kg”, the “Percent inhibition of acid output” value is given as 49.5%, the “Percent inhibition of acidity” value came out at 58.1% and the “Percent inhibition of volume” value is given as -21.8%.
Consider `CC(C)C(C)c1cc(O)c(C2=CCN(C)CC2)c(O)c1` (centres unmarked) [Example VII, 2-(N-Methyl-1,2,3,6-tetrahydro-4-pyridyl)-5-(1,2-dimethylpropyl) resorcinol hydrochloride], for which the inhibition in vivo at 50 mg/kg by setting is: under setting [2], -24.6%; under setting [3], -9.9%; under setting [4], 15.8%; under setting [5], 7.1%; under setting [6], 9.5%.
Taken in the same sequence, the figures for `CCCCCc1cc(O)c(C2=CCN(C)CC2)c(O)c1` [Example VIII, 2-(N-Methyl-1,2,3,6-tetrahydro-4-pyridyl)-5-pentyl resorcinol hydrochloride] were -2%, 55.9%, 74.4%, 41.5% and 57.4%.
For `CCCCCC(C)C(C)c1cc(O)c(C2=CCN(C)CC2)c(O)c1` (centres unmarked) [Example X, 2-(N-Methyl-1,2,3,6-tetrahydro-4-pyridyl)-5-(1,2-dimethylheptyl) resorcinol], the inhibition in vivo at 12.5 mg/kg under setting [7] amounted to 23.4%; the inhibition in vivo at 12.5 mg/kg under setting [8] was determined as 10.8%; the inhibition in vivo at 12.5 mg/kg under setting [9] came out at 13.1%; the inhibition in vivo at 12.5 mg/kg under setting [10] worked out at 22.6%; the inhibition in vivo at 12.5 mg/kg under setting [11] was -2.8%. The inhibition in vivo at 25 mg/kg stood at 45.1% under setting [12]; 22.9% under setting [13]; 20.9% under setting [14]; 46.4% under setting [15]; 1.4% under setting [16]. Moreover, the inhibition in vivo at 50 mg/kg reads like this: under setting [2], 41.5%; under setting [3], 48%; under setting [4], 69.3%; under setting [5], 66.8%; under setting [6], 7.7%. In addition, the inhibition in vivo at 100 mg/kg is 63% under setting [17]; 69% under setting [18]; 68.4% under setting [19]; 63.2% under setting [20]; 1.7% under setting [21].
`CC(C)c1cc(O)c(C2=CCN(Cc3ccccc3)CC2)c(O)c1` [Example XI, 2-(N-Benzyl-1,2,3,6-tetrahydro-4-pyridyl)-5-isopropyl resorcinol hydrochloride]: the inhibition in vivo at 50 mg/kg reads like this: under setting [2], -36%; under setting [3], 47.1%; under setting [4], 68.2%; under setting [5], 22.8%; under setting [6], 63.8%.
The corresponding values for `CCCCCc1cc(O)c(C2=CCN(CCc3ccccc3)CC2)c(O)c1` [Example XIX, 2-(N-Phenethyl-1,2,3,6-tetrahydro-4-pyridyl)-5-pentyl resorcinol hydrochloride] are 6.9%, 31.7%, 27.3%, 4.2% and 25.5%.
For the compound `CCCCCC(C)C(C)c1cc(O)c(C2=CCNCC2)c(O)c1` (centres unmarked) [Example XV, 2-(1,2,3,6-Tetrahydro-4-pyridyl)-5-(1,2-dimethylheptyl) resorcinol hydrochloride], the inhibition in vivo at 50 mg/kg was 53.8% under setting [2]; 54.3% under setting [3]; 22.8% under setting [4]; 24.3% under setting [5]; -1.4% under setting [6]. The inhibition in vivo at 100 mg/kg under setting [17] amounted to 34.5%; the inhibition in vivo at 100 mg/kg under setting [18] came to 52.8%; the inhibition in vivo at 100 mg/kg under setting [19] stood at 43.6%; the inhibition in vivo at 100 mg/kg under setting [20] stood at 41.4%; the inhibition in vivo at 100 mg/kg under setting [21] is 12.9%.
As to `CCCCCC(C)C(C)c1cc(O)c(C2=CCN(CCc3ccccc3)CC2)c(O)c1` (centres unmarked) [Example XX, 2-(N-Phenethyl-1,2,3,6-tetrahydro-4-pyridyl)-5-(1,2-dimethylheptyl) resorcinol hydrochloride], the inhibition in vivo at 12.5 mg/kg came to 9.7% under setting [8], 8.5% under setting [9] and 2.6% under setting [11]. Moreover, the inhibition in vivo at 25 mg/kg under setting [13] was 17.1%, the inhibition in vivo at 25 mg/kg under setting [14] was 1.7% and the inhibition in vivo at 25 mg/kg under setting [16] is 16.9%. Also, the inhibition in vivo at 50 mg/kg runs as follows: under setting [4], 47.8%; under setting [5], 10.7%; under setting [6], 42.8%. Moreover, the inhibition in vivo at 100 mg/kg amounted to 51.2% under setting [18], 19.5% under setting [19] and 44.8% under setting [21].
Regarding `CCCCCc1cc(O)c(C2CCN(CCc3ccccc3)CC2)c(O)c1` [Example XXI, 2-(N-Phenethyl-4-piperidino)-5-pentyl resorcinol hydrochloride], the inhibition in vivo at 12.5 mg/kg is 11.4% under setting [7]; 0.5% under setting [8]; -4% under setting [9]; 19.9% under setting [10]; 6.5% under setting [11]. For the same compound, the inhibition in vivo at 25 mg/kg reads like this: under setting [12], 11.4%; under setting [13], 32.7%; under setting [14], 5.8%; under setting [15], 41.4%; under setting [16], 31.2%. For the same compound, the inhibition in vivo at 50 mg/kg was -6.2% under setting [2]; 56.4% under setting [3]; 64.1% under setting [4]; 15% under setting [5]; 58.2% under setting [6]. Further, the inhibition in vivo at 100 mg/kg reads like this: under setting [17], -12.7%; under setting [18], 66.6%; under setting [19], 16.1%; under setting [20], 60.6%; under setting [21], 61.8%.
In the case of `CCCCCC(C)C(C)c1cc(O)c(C2CCN(CCc3ccccc3)CC2)c(O)c1` (centres unmarked) [Example XXII, 2-(N-phenethyl-4-piperidino)-5-(1,2-dimethylheptyl) resorcinol hydrochloride], the inhibition in vivo at 50 mg/kg under setting [2] is -7.1%; the inhibition in vivo at 50 mg/kg under setting [3] came out at 30.9%; the inhibition in vivo at 50 mg/kg under setting [4] turned out to be 37.6%; the inhibition in vivo at 50 mg/kg under setting [5] turned out to be 8.5%; the inhibition in vivo at 50 mg/kg under setting [6] was found to be 37.3%.
The corresponding values for `CCCCCC(C)C(C)c1cc(O)c(C2=CC3CCC(C2)N3C)c(O)c1` (centres unmarked) [Example XXV, 2-(N-Methyl-2,6-ethylidene-1,2,3,6-tetrahydro-4-pyridyl)-5-(1,2-dimethylheptyl) resorcinol hydrochloride] are 1%, 11%, 29.4%, 21.2% and 9.7%.
As to `CCCCCC(C)C(C)c1cc(O)c(C2=CCN(C)CC2)c(OC)c1` (centres unmarked) [Example XXVI, 2-(N-Methyl-1,2,3,6-tetrahydro-4-pyridyl)-3-methoxy-5-(1,2-dimethylheptyl)phenol hydrochloride], the inhibition in vivo at 50 mg/kg is 12.6% under setting [2]; 8.6% under setting [3]; 53.7% under setting [4]; 53.1% under setting [5]; -0.3% under setting [6].

The values are drawn from patent US4180669A, “2-(N-phenethyl-4-piperidino)-5-pentyl resorcinol” (Abbott Laboratories, priority 1978, dated 1979).
